Data: patent US12264146B2, “Rho kinase inhibitor, method for preparing same and uses thereof” (BEIJING INCREASE INNOVATIVE DRUG CO., LTD., priority 2018, dated 2025)

Experiments:
[1] = system: subarachnoid hemorrhage in rats; test: Rat subarachnoid hemorrhage (SAH) model by intravascular puncture, Sugawara bleeding score; assay type: in vivo; design: dose or concentration left out as unconfirmed; settings: tail vein injection, 2 administrations 4 h apart, scored 24 h after first administration (Sugawara)
Protocol: Rat subarachnoid hemorrhage (SAH) model was built by intravascular puncture. After being weighed, the rats were anesthetized with sodium pentobarbital (50 mg/kg) or chloral hydrate (300 mg/kg) by intraperitoneal injection, then fixed on their back and maintained the animal's body temperature at about 37° C. The rats' neck skin was shaved for surgery, a median incision was made on the neck, and muscle and fascia were separated along the inner edge of stemocleidomastoid muscle to expose the main and bifurcation of right common carotid artery, and expose the external and internal carotid arteries.
The bifurcation of internal carotid artery was gently clamped with ophthalmic forceps, the bifurcation of the internal carotid artery and the external carotid artery was pierced with a 6-gauge syringe needle, the ophthalmic forceps holding the bifurcation of internal carotid artery was slightly loosen, and No. 3 fishing thread was used to perform a puncture at the bleeding point, the ophthalmic forceps on the internal carotid artery was loosen, and the fishing thread was inserted into skull. […] After staying for 15 seconds, the thread for puncture was completely removed, and the skin was sutured after compression to stop the bleeding. 1.6 million units of penicillin potassium (400,000 units/ml, 0.2 ml/rat) was intramuscularly injected to avoid wound infection. For the sham operation group, the thread for puncture was removed when resistance was felt without piercing the bifurcation of the anterior cerebral artery and the middle cerebral artery, while the remaining operation steps were the same as the model group. After the operation, the rats were transferred to a thermal insulation blanket, then transferred to a squirrel cage when they were basically awake, and kept normally.
In this test experimental, 32 groups were set, i.e., Groups 1 to 32, in which Group 1 was a normal control group (healthy rats), Group 2 was a sham operation control group (not modeling by puncture), Group 3 was a model control group (modeling by puncture, administrated with normal saline), Group 4 was a positive control group (modeling by puncture, administrated with fasudil hydrochloride injection), and Groups 5 to 32 were test groups of the compounds of the present application (modeling by puncture, respectively administrated with the compounds of the present application); and there were 8 animals (purchased from SPF (Beijing) Biotechnology Co., Ltd., the certificate number was SYXK (Beijing) 2016-0002) in each group, half of them were female and half of them were male. The animals were subjected to fasting for 12 to 18 hours without prohibition of drinking water before modeling. […] The rats were euthanized 24 h after the first administration, and the brains were taken. According to Sugawara's method (Reference: Sugawara T, Ayer R, Jadhav V, et al. A new grading system evaluating bleeding scale in filament perforation subarachnoid hemorrhage rat model. J Neurosci Methods. 2008, 167(2):327-34), the subarachnoid hemorrhage amounts were scored, and the scoring results were as follows: […]

prostacyclin (PGI2) = test: Expression of prostacyclin (PGI2) in EA.Hy926 endothelial cells, ELISA kit; assay type: cell-based; settings: EA.Hy926 cell supernatant, 24 h
Protocol: (§1) Commercially available cytokine kits were used to detect the effects of the compounds of the present application on vascular endothelium-derived contracting factor endothelin, vascular endothelium-derived relaxing factor endothelial nitric oxide synthase, nitric oxide, and prostacyclin factor. The detection was performed according to the kit instructions. When testing the effect of the compound of the present application on cytokines, a normal control group, a fasudil hydrochloride group, and high-, medium- and low-dose groups of the compounds of the present application were set up for testing. The fasudil hydrochloride used in this test example was purchased from Beijing Sihuan Pharmaceutical Co., Ltd., with the SFDA approval number of H20173349. The EA.Hy926 cells used in this test example were purchased from Suzhou Beina Chuanglian Biotechnology Co., Ltd.
EA.Hy926 cells were taken and inoculated in a 96-well plate at 5×10^4 cells/mL, 100 μL per well, and cultured adherently for 24 hours, then the test compound prepared in DMEM medium was added, and an equal volume of DMEM medium was added in the normal control group, then the cells were cultured at 37° C. for 24 hours, and then the cell supernatant was taken and placed in an EP tube, and centrifuged for 15 min at 3000 r/min and 15° C. The resulting supernatant was transferred to a new EP tube, and then the detection was performed according to the instruction of ELISA kit (purchased from Wuhan Elabscience Biotechnology Co., Ltd., Cat. No. E-EL-0022c), and the detection results were shown in Table 3.

endothelin (ET-1) = test: Expression of endothelin (ET-1) in EA.Hy926 endothelial cells, detection kit; assay type: cell-based, human; settings: EA.Hy926 cell supernatant, 48 h
Protocol: as §1
EA.Hy926 cells were taken and inoculated in a 96-well plate at 5×10^4 cells/mL, 100 μL per well, and cultured adherently for 24 hours, then the test compound prepared in DMEM medium was added, and an equal volume of DMEM medium was added in the normal control group, then the cells were cultured at 37° C. for 48 hours, and then the cell supernatant was taken and placed in an EP tube, and centrifuged at 3000 r/min, 4° C. for 15 min. The resulting cell supernatant was transferred to a new EP tube, diluted twice with culture medium, and detected according to the instruction of the human endothelin detection kit (purchased from Wuhan Boster Biological Engineering Co., Ltd., batch number 59113731009), and the detection results were shown in Table 2.

nitric oxide (NO) = test: Synthesis and secretion of nitric oxide (NO) in EA.Hy926 endothelial cells, NO detection kit; assay type: cell-based; settings: EA.Hy926 cell supernatant, 24 h
Protocol: as §1
EA.Hy926 cells were inoculated in a 24-well plate at 5×10^5 cells/mL, 400 μL per well, and cultured adherently for 18 hours, then the supernatant was discarded, the test compound prepared in DMEM medium was added, and an equal volume of DMEM medium was added in the normal control group, then the cells was cultured for 24 h in incubator, and then the cell supernatant was collected and detected according to the instructions of NO detection kit (purchased from Beyotime Institute of Biotechnology, Cat. No. 062617171017), and the detection results were shown in Table 5.

SMILES	Cerebral hemorrhage volume score (x ± s) [1]	expression of prostacyclin in endothelial cells: Detection result of test compound at low dose (0.4 μM) (prostacyclin (PGI2)) [pg/mL]	expression of prostacyclin in endothelial cells: Detection result of test compound at medium dose (2 μM) (prostacyclin (PGI2)) [pg/mL]	expression of prostacyclin in endothelial cells: Detection result of test compound at high dose (10 μM) (prostacyclin (PGI2)) [pg/mL]	expression of endothelin in endothelial cells: Detection result of test compound at low dose (0.4 μM) (endothelin (ET-1)) [pg/mL]	expression of endothelin in endothelial cells: Detection result of test compound at medium dose (2 μM) (endothelin (ET-1)) [pg/mL]	expression of endothelin in endothelial cells: Detection result of test compound at high dose (10 μM) (endothelin (ET-1)) [pg/mL]	nitric oxide secretion in endothelial cells: Detection result of test compound at low dose (0.4 μM) (nitric oxide (NO)) [μm]	nitric oxide secretion in endothelial cells: Detection result of test compound at medium dose (2 μM) (nitric oxide (NO)) [μm]	nitric oxide secretion in endothelial cells: Detection result of test compound at high dose (10 μM) (nitric oxide (NO)) [μm]
C[C@@H]1CNCCCN1S(=O)(=O)c1cccc2c(O)ncc(C3CC3)c12 [Compound R-YK1600-1, (R)-4-cyclopropyl-5-((2-methyl-1,4-diazacycloheptan-1-yl)sulfonyl)isoquinolin-1-ol]	13.37 ± 2.56	243.20 ± 2.28	242.34 ± 7.96	247.68 ± 3.34	228.20 ± 2.28	229.34 ± 7.96	227.68 ± 3.34	1.012 ± 0.053	1.099 ± 0.201	1.148 ± 0.251
COc1ncc(C2CC2)c2c(S(=O)(=O)N3CCCNC[C@H]3C)cccc12 [Compound R-YK1600-2, (R)-4-cyclopropyl-1-methoxy-5-((2-methyl-1,4-diazacycloheptan-1-yl)sulfonyl)isoquinoline]	13.59 ± 2.67	241.55 ± 0.12	245.98 ± 11.41	249.23 ± 0.75	223.55 ± 0.12	225.98 ± 11.41	229.23 ± 0.75	0.982 ± 0.096	1.037 ± 0.062	1.139 ± 0.263
C[C@@H]1CNCCCN1S(=O)(=O)c1cccc2c(O)nccc12 [Compound R-YK1601, (R)-5-((2-methyl-1,4-diazacycloheptan-1-yl)sulfonyl)isoquinolin-1-ol]	11.75 ± 2.05	253.00 ± 5.55	253.52 ± 55.60	227.01 ± 16.23	253.46 ± 19.86	266.61 ± 20.77	243.07 ± 17.37	0.806 ± 0.057	0.896 ± 0.147	1.131 ± 0.134
COc1nccc2c(S(=O)(=O)N3CCCNC[C@H]3C)cccc12 [Compound R-YK1602, (R)-1-methoxy-5-((2-methyl-1,4-diazacycloheptan-1-yl)sulfonyl)isoquinoline]	11.95 ± 2.04	248.71 ± 19.98	263.34 ± 15.04	241.51 ± 16.58	263.55 ± 0.12	285.24 ± 13.22	238.19 ± 19.65	0.878 ± 0.006	0.914 ± 0.032	1.005 ± 0.006
C[C@@H]1CNCCCN1S(=O)(=O)c1cccc2cnccc12 [Compound R-YK1603, (R)-5-((2-methyl-1,4-diazacycloheptan-1-yl)sulfonyl)isoquinoline]	12.06 ± 1.98	262.30 ± 0.77	272.58 ± 4.40	243.73 ± 15.66	242.75 ± 52.53	252.72 ± 22.83	242.03 ± 1.24	1.207 ± 0.000	0.743 ± 0.070	0.910 ± 0.025
C[C@@H]1CNCCCN1S(=O)(=O)c1cccc2c(O)ncc(F)c12 [Compound R-YK1604, (R)-4-fluoro-5-((2-methyl-1,4-diazacycloheptan-1-yl)sulfonyl)isoquinolin-1-ol]	12.58 ± 1.96	280.40 ± 9.89	279.35 ± 28.69	251.44 ± 42.48	232.75 ± 42.51	242.72 ± 20.81	230.03 ± 1.24	1.009 ± 0.064	0.851 ± 0.032	0.829 ± 0.064
